Measurements published in US20220184020A1, “Polyphenols as Modulators of Platelet Function” (Northeastern University, priority 2019, published 2022).

What was measured:
[1] = system: platelets; assay: Platelet functions after ADP stimulation (control, distant receptor); format: cell-based, human; settings: stimulant whose receptor is distant from the RA-VD-module (ADP)
Procedure: To validate the predictive power of the developed framework, direct experimental evidence of the predicted mechanistic role of Rosmarinic acid (RA) in VD was sought. […] Therefore, whether RA influenced platelet activation in vitro was evaluated. As platelets can be stimulated through different activation pathways, RA effects can, in principle, occur in any of them. To test these different possibilities, platelets were pretreated with RA and then activated with: 1) glycoprotein VI by collagen or collagen-related peptide (Collagen/CRPXL); 2) protease-activated receptors-1,4 by thrombin receptor activator peptide-6 (TRAP-6); 3) prostanoid thromboxane receptor by the thromboxane A2 analogue (U46619); and 4) P2Y1/12 receptor stimulation by adenosine diphosphate (ADP). […] Platelet aggregation was measured by turbidimetric aggregometry. […] Platelet aggregation was monitored for 6 minutes at 37° C. with a stir speed of 1000 rpm and the maximum extend of aggregation recorded using AGGRO/LINK®8 software. In some cases, dense granule release was simultaneously recorded by supplementing samples with Chrono-Lume® (Chrono-Log®, 395) according to the manufacturer's instructions. […] Percent-positive cells were determined by gating on fluorescence intensity compared to unstimulated samples.

[2] = system: platelets; assay: Platelet alpha granule secretion (P-selectin surface expression); format: cell-based, human; settings: in response to U46619; RA pre-treatment 1 hour
Procedure: To validate the predictive power of the developed framework, direct experimental evidence of the predicted mechanistic role of Rosmarinic acid (RA) in VD was sought. […] Therefore, whether RA influenced platelet activation in vitro was evaluated. As platelets can be stimulated through different activation pathways, RA effects can, in principle, occur in any of them. To test these different possibilities, platelets were pretreated with RA and then activated with: 1) glycoprotein VI by collagen or collagen-related peptide (Collagen/CRPXL); 2) protease-activated receptors-1,4 by thrombin receptor activator peptide-6 (TRAP-6); 3) prostanoid thromboxane receptor by the thromboxane A2 analogue (U46619); and 4) P2Y1/12 receptor stimulation by adenosine diphosphate (ADP). When the network distance between each stimulant receptor and the RA-VD-platelet module (FIG. 11A) was compared, it was observed that the receptors for Collagen/CRPXL, TRAP-6, and U46619 are closer than the random expectation, while the receptor for ADP is more distant (FIG. 11B). It is expected that platelets would be most affected by RA when treated with stimulants whose receptors are most proximal to the RA-VD-platelet module, i.e. Collagen/CRPXL, TRAP-6, and U46619. […] Percent-positive cells were determined by gating on fluorescence intensity compared to unstimulated samples.

O=C(/C=C/c1ccc(O)c(O)c1)O[C@H](Cc1ccc(O)c(O)c1)C(=O)O [rosmarinic acid]
platelet functions [1]: did not affect
alpha granule secretion [2]: dampened
